# Patent US10752584B2 (EMORY UNIVERSITY, priority 2016, dated 2020)
# pEC50, pIC50: −log10 of the molar value. Entries after “also recorded” stand apart in the source; their conditions may differ. Read-outs that look alike come from different tables or passages of the source.
# Columns and labels:
# HepG2 cells = assay: Lactic acid production in HepG2 cells; type: cell-based; conditions: 14-day assay, 10 μM
# Description: To measure the effects of the compounds on lactic acid production, HepG2 cells from a stock culture were diluted and plated in 12-well culture plates at 2.5×10^4 cells per well. Various concentrations (0 μM, 0.1 μM, 1 μM, 10 μM and 100 μM) of compound were added, and the cultures were incubated at 37° C. in a humidified 5% CO2 atmosphere for 4 days. At day 4, the number of cells in each well was determined and the culture medium collected. The culture medium was then filtered, and the lactic acid content in the medium was determined using a colorimetric lactic acid assay (Sigma-Aldrich). Since lactic acid product can be considered a marker for impaired mitochondrial function, elevated levels of lactic acid production detected in cells grown in the presence of test compounds would indicate a drug-induced cytotoxic effect.
# (§1) The effect of compounds 7 and 9 on the levels of mitochondrial and nuclear DNA, and lactic acid production was evaluated in HepG2 cells (14-day assay), and the data is tabulated below in Table 2: […]
# wild type HBV = assay: Anti-HBV assay in AD-38 cell line; type: cell-based; conditions: Hepatitis B virus, AD-38 cells, HBV in culture supernatant; for pEC50: read-out: Anti-HBV activity EC50
# Description: The anti-HBV activity of the compounds was determined by treating the AD-38 cell line carrying wild type HBV under the control of tetracycline (see Ladner S. K., Otto M. J., Barker C. S., Zaifert K., Wang G. H., Guo J. T., Seeger C. & King R. W. Antimicrob. Agents Chemother. 1997, 41, 1715-20). Removal of tetracycline from the medium [Tet (−)] results in the production of HBV. The levels of HBV in the culture supernatant fluids from cells treated with the compounds were compared with that of the untreated controls. Control cultures with tetracycline [Tet (+)] were also maintained to determine the basal levels of HBV expression. 3TC was included as positive control.
# The median effective concentrations (EC50) ranges of several of the compounds described herein against HBV are shown in Table 3: […]
# [1] = system: mitochondrial DNA (COXII gene) in HepG2 cells; assay: Mitochondrial toxicity assay in HepG2 cells: mitochondrial DNA; type: cell-based; conditions: for pIC50: read-out: IC50 MtDNA
# From the text: (§2) A real-time PCR assay to accurately quantify mitochondrial DNA content has been developed (see Stuyver L J, Lostia S, Adams M, Mathew J S, Pai B S, Grier J, Tharnish P M, Choi Y, Chong Y, Choo H, Chu C K, Otto M J, Schinazi R F. Antiviral activities and cellular toxicities of modified 2′,3′-dideoxy-2′,3′-didehydrocytidine analogs. Antimicrob. Agents Chemother. 2002; 46: 3854-60). This assay was used in all studies described in this application that determine the effect of compounds on mitochondrial DNA content. In this assay, low-passage-number HepG2 cells were seeded at 5,000 cells/well in collagen-coated 96-well plates. Test compounds were added to the medium to obtain final concentrations of 0 μM, 0.1 μM, 10 μM and 100 μM. On culture day 7, cellular nucleic acids were prepared by using commercially available columns (RNeasy 96 kit; Qiagen). […] The mitochondrial cytochrome c oxidase subunit II (COXII) gene and the β-actin or rRNA gene were amplified from 5 μl of the eluted nucleic acids using a multiplex Q-PCR protocol with suitable primers and probes for both target and reference amplifications. For COXII the following sense, probe and antisense primers were used, respectively: 5′-TGCCCGCCATCATCCTA-3′, 5′-tetrachloro-6-carboxyfluorescein-[…]-TAMRA-3′ and 5′-[…]-3′. For exon 3 of the β-actin gene (GenBank accession number E01094) the sense, probe, and antisense primers are 5′-GCGCGGCTACAGCTTCA-3′, 5′-6-[…]-3′ and 5′-[…]-3′, respectively. The primers and probes for the rRNA gene are commercially available from Applied Biosystems. Since equal amplification efficiencies are obtained for all genes, the comparative CT method was used to investigate potential inhibition of mitochondrial DNA synthesis. The comparative CT method uses arithmetic formulas in which the amount of target (COXII gene) is normalized to the amount of an endogenous reference (the β-actin or rRNA gene) and is relative to a calibrator (a control with no drug at day 7). The arithmetic formula for this approach is given by 2−ΔΔCT, where ΔΔCT is (CT for average target test sample CT for target control)−(CT for average reference test−CT for reference control) (see Johnson M R, K Wang, J B Smith, M J Heslin, R B Diasio. Quantitation of dihydropyrimidine dehydrogenase expression by real-time reverse transcription polymerase chain reaction. Anal. Biochem. 2000; 278:175-184). A decrease in mitochondrial DNA content in cells grown in the presence of drug indicated mitochondrial toxicity.
# as §1
# [2] = system: nuclear DNA in HepG2 cells; assay: Mitochondrial toxicity assay in HepG2 cells: nuclear DNA; type: cell-based
# From the text: as §2, §1
# [3] = Cellular toxicity assay in Vero cells; type: cell-based; conditions: African green monkey, read-out: Cytotoxicity
# Description: (§3) The toxicity of the compounds was assessed in Vero, human PBM, CEM (human lymphoblastoid), MT-2, and HepG2 cells, as described previously (see Schinazi R. F., Sommadossi J.-P., Saalmann V., Cannon D. L., Xie M.-Y., Hart G. C., Smith G. A. & Hahn E. F. Antimicrob. Agents Chemother. 1990, 34, 1061-67). Cycloheximide was included as positive cytotoxic control, and untreated cells exposed to solvent were included as negative controls. The cytotoxicity IC50 was obtained from the concentration-response curve using the median effective method described previously (see Chou T.-C. & Talalay P. Adv. Enzyme Regul. 1984, 22, 27-55; Belen'kii M. S. & Schinazi R. F. Antiviral Res. 1994, 25, 1-11).
# Vero = assay: Cellular toxicity assay in Vero cells; type: cell-based; conditions: read-out: Cytotoxicity
# Description: as §3
# [4] = Cellular toxicity assay in HepG2 cells; type: cell-based; conditions: human, read-out: Cytotoxicity
# Description: as §3
# [5] = Cellular toxicity assay in human PBM cells; type: cell-based; conditions: human, human PBM cells, read-out: Cytotoxicity
# Description: as §3
# human PBM = assay: Cellular toxicity assay in human PBM cells; type: cell-based; conditions: read-out: Cytotoxicity
# Description: as §3
# HBV e antigen (HBeAg) = assay: HBeAg ELISA in HepAD38 cells (cccDNA-dependent marker); type: cell-based
# Description: Production of secreted HBeAg is predominantly cccDNA-dependent in HepAD38 cells and therefore can serve as a surrogate marker for cccDNA (Ladner, S. K., Otto, M. J., Barker, C. S., Zaifert, K., Wang, G. H., Guo, J. T., Seeger, C., King, R. W. Antimicrob Agents Chemother 1997, 41, 1715-1720; Zhou T, Guo H, Guo J T, Cuconati A, Mehta A, Block T M. Antiviral Res. 2006; 72 (2): 116-24.). The effect on the levels of cccDNA formation was assessed using a cell-based assay that measures HBV e antigen (HBeAg) as a cccDNA-dependent marker in the HepAD38 system. HepAD38 cells were seeded at 50,000 cells/well in collagen-coated 96-well plates with DMEM/F12 medium (Life Technologies) supplemented with 10% heat-inactivated fetal bovine serum. Cells were treated with 0.3 μg/ml tetracycline as needed. Test compounds and controls were added to cells to a final concentration of 10 μM or in a dose response manner ranging from 0.001 to 10 μM. Medium and test compounds were replenished every 5 days in culture. Supernatants were harvested at day-14, clarified by centrifugation at 5000 rpm for 5 min, and stored at −70° C. until use. ELISA—Culture medium was diluted 1:15 in DMEM/F12 and the levels of HBeAg secreted in the culture medium were measured by using HBeAg ELISA kit (BioChain Institute Inc. Hayward, Calif.) according to the manufacturer's protocol. The concentration of compound that reduced levels of secreted HBeAg by 50% (EC50) was determined by linear regression.
# HBV Cp149 capsids = target: T1, HBV Cp149 capsids (Hepatitis B virus genotype D subtype adw, UniProt P03147); assay: Disruption of already-formed capsids, electron micrographs; type: biochemical; conditions: 25 μM compound, overnight at 4°, FIG. 2-4
# T1 construct: hepatitis B virus core C-terminally truncated protein (HBV Cp149); made in house
# T1 sequence (P03147 1-149): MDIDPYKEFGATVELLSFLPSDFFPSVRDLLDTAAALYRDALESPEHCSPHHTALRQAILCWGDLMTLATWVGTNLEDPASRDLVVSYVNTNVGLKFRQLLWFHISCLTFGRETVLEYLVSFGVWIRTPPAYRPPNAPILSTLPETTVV
# Description: The next question was whether these compounds could disrupt already-formed capsids. Accordingly, the capsids were formed as discussed above (incubation of isolated HBV Cp149 with 300 mM NaCl, stored overnight at 4°). Then, the capsids were incubated with the putative compound (overnight at 4°), and electron micrographs were then taken.
# HBV Cp149 = target: T2, HBV Cp149 (Hepatitis B virus genotype D subtype adw, UniProt P03147); assay: Capsid formation assay, electron micrographs; type: biochemical; conditions: 25 μM compound
# T2 construct: hepatitis B virus core C-terminally truncated protein (HBV Cp149); made in house
# T2 sequence (P03147 1-149): as above
# Description: In the absence of compounds which disrupt capsid formation, hepatitis B virus core C-terminally truncated protein (HBV Cp149, protein isolated by reported methods [Zlotnick, A et al; Biochem 1996, 35, 7412-7421] normally assembles into an HBV Cp149 capsid. The purpose of this example was to determine whether putative active agents would disrupt capsid formation, and thus be active as anti-HBV agents. Putative active agents were incubated at a concentration of 25 μM for 1 h at 4° C. with HBV Cp149 at a concentration of 10 μM. Capsid assembly was then promoted by adding 300 mM NaCl, and storing the mixture overnight at 4°. Negative-stain electron micrographs were collected using a JEOL JEM-1400 120 kV electron microscope using uranyl acetate as a contrast agent.
# [6] = HepG2 cells, 14-day assay, 10 μM
smiles,measurement,setting,value
"Nc1ccn([C@@H]2CS[C@H](CO)O2)c(=O)n1 [Compound 3TC, lamivudine, reference compound]",Lactic acid production (% of control),HepG2 cells,94 ± 20.8 % of control
same,pEC50,wild type HBV,6.05 to 7.00
same,EC90,wild type HBV; read-out: Anti-HBV activity EC90,1 to 9 µM
same,MtDNA (% of control),[1]; [6],130 (85.7-196) % of control
same,inhibition at 10 µM,"[1]; Homo sapiens, HepG2, 336 h, read-out: % inhibition MtDNA",8.8%
same,pIC50,"[1]; Homo sapiens, HepG2, 336 h",< 5.00
same,pIC50,"[2]; Homo sapiens, 336 h, HepG2 cells, 14-day assay",< 5.00
same,inhibition at 10 µM,"[2]; Homo sapiens, HepG2, 336 h, read-out: % inhibition nDNA",29.6%
"O=C(Nc1ccc(F)c(F)c1)c1cc(S(=O)(=O)NCc2cn(C3CC3)nn2)ccc1F [Compound 13, 5-(N-((1-Cyclopropyl-1H-1,2,3-triazol-4-yl)methyl)sulfamoyl)-N-(3,4-difluorophenyl)-2-fluorobenzamide]",CC50,[3],55.6 µM
same,CC50,Vero,66 µM
same,CC50,[4],> 100 µM
same,CC50,[5],> 100 µM
same,CC50,human PBM,64.8 µM
same,pEC50,wild type HBV,6.05 to 7.00
same,"Anti-HBeAg activity, percentage in brackets under EC50","HBV e antigen (HBeAg); HepAD38 cells, day 14, concentration not printed in the table (method: 10 μM)",(86%)
same,pEC50,"HBV e antigen (HBeAg); Hepatitis B virus, HePAD38, 336 h, read-out: Anti-HBeAg activity EC50",> 5.00
"CCOC(=O)C1=C(CN2CCOCC2)NC(c2nccs2)=NC1c1ccc(F)cc1Br (stereo not shown) [GLS4, Morphothiadine mesilate]",Effect on already-formed capsids,HBV Cp149 capsids,misassembled hollow spheres; also recorded: the capsids were disrupted
same,Effect on capsid formation,"HBV Cp149; 10 μM HBV Cp149, 300 mM NaCl, FIG. 1",misassembled hollow spheres; also recorded: capsid formation was disrupted
same,Size of the hollow spheres formed,"HBV Cp149; 10 μM HBV Cp149, vehicle approximately 40 nm",80-100 nm
"Nc1ccn([C@H]2CC[C@@H](CO)O2)c(=O)n1 [ddC, reference compound]",Lactic acid production (% of control),HepG2 cells,196 ± 73.0 % of control
same,MtDNA (% of control),[1],5.3 (5.0-5.8) % of control
same,% inhibition MtDNA,[1]; [6],97.4%
same,pIC50,"[1]; HepG2 cells, 14-day assay",> 5.00
same,pIC50,"[2]; HepG2 cells, 14-day assay",> 5.00
same,% inhibition nDNA,[2]; [6],52.4%
